Source: PubChem BioAssay (NCI)
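Method: 48-hour compound exposure of cells in 96-well plates, five concentrations, linear interpolation of endpoints. At the TGI there is no net growth.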

What was measured:
Experiment in all cases: DTP human tumour cell line panel, 48 h
[1] = system: SN12C renal
[2] = system: K-562 leukemia
[3] = system: KM12 colon
[4] = system: RPMI-8226 leukemia
[5] = system: SK-MEL-28 melanoma
[6] = system: SNB-78 CNS
[7] = system: HL-60(TB) leukemia
[8] = system: M19-MEL melanoma
[9] = system: NCI-H522 lung
[10] = system: SK-MEL-5 melanoma
[11] = system: HT29 colon
[12] = system: RXF 393 renal
[13] = system: ACHN renal
[14] = system: SF-539 CNS
[15] = system: NCI-H460 lung
[16] = system: OVCAR-5 ovarian
[17] = system: 786-0 renal
[18] = system: SK-MEL-2 melanoma
[19] = system: COLO 205 colon
[20] = system: DMS 273 small cell lung
[21] = system: MOLT-4 leukemia
[22] = system: XF 498 CNS
[23] = system: A549 NSCLC
[24] = system: MALME-3M melanoma
[25] = system: SW-620 colon
[26] = system: SF-295 CNS
[27] = system: CCRF-CEM leukemia
[28] = system: HCT-15 colon
[29] = system: UACC-62 melanoma
[30] = system: SR leukemia
[31] = system: EKVX NSCLC
[32] = system: SNB-19 CNS
[33] = system: OVCAR-3 ovarian
[34] = system: M14 melanoma
[35] = system: LOX IMVI melanoma
[36] = system: NCI-H23 lung
[37] = system: IGROV1 ovarian
[38] = system: UO-31 renal
[39] = system: U251 CNS
[40] = system: OVCAR-8 ovarian
[41] = system: LXFL 529 NSCLC
[42] = system: DMS 114 small cell lung
[43] = system: TK-10 renal
[44] = system: KM20L2 colon
[45] = system: OVCAR-4 ovarian
[46] = system: NCI-H226 lung
[47] = system: HCT-116 colon
[48] = system: SF-268 CNS
[49] = system: HOP-62 NSCLC
[50] = system: HOP-92 NSCLC
[51] = system: A498 renal
[52] = system: HCC-2998 colon
[53] = system: HOP-18 NSCLC
[54] = system: DLD-1 colon
[55] = system: SNB-75 CNS
[56] = system: UACC-257 melanoma
[57] = system: CAKI-1 renal

SMILES: Cc1ccc(S(=O)(=O)OC(c2ccc(Cl)cc2Cl)C2OC(=O)c3ccccc32)cc1 (stereo not drawn)
- TGI [1]: > 100 µM
- TGI [2]: > 100 µM
- TGI [3]: > 100 µM
- TGI [4]: > 100 µM
- TGI [5]: > 100 µM
- TGI [6]: > 100 µM
- TGI [7]: 86.1 µM
- TGI [8]: > 100 µM
- TGI [9]: > 100 µM
- TGI [10]: > 100 µM
- TGI [11]: > 100 µM
- TGI [12]: > 100 µM
- TGI [13]: > 100 µM
- TGI [14]: > 100 µM
- TGI [15]: > 100 µM
- TGI [16]: > 100 µM
- TGI [17]: > 100 µM
- TGI [18]: > 100 µM
- TGI [19]: > 100 µM
- TGI [20]: > 100 µM
- TGI [21]: > 100 µM
- TGI [22]: > 100 µM
- TGI [23]: > 100 µM
- TGI [24]: > 100 µM
- TGI [25]: > 100 µM
- TGI [26]: > 100 µM
- TGI [27]: > 100 µM
- TGI [28]: > 100 µM
- TGI [29]: > 100 µM
- TGI [30]: > 100 µM
- TGI [31]: > 100 µM
- TGI [32]: > 100 µM
- TGI [33]: > 100 µM
- TGI [34]: > 100 µM
- TGI [35]: > 100 µM
- TGI [36]: > 100 µM
- TGI [37]: > 100 µM
- TGI [38]: 95.6 µM
- TGI [39]: > 100 µM
- TGI [40]: > 100 µM
- TGI [41]: > 100 µM
- TGI [42]: > 100 µM
- TGI [43]: > 100 µM
- TGI [44]: > 100 µM
- TGI [45]: > 100 µM
- TGI [46]: > 100 µM
- TGI [47]: > 100 µM
- TGI [48]: > 100 µM
- TGI [49]: > 100 µM

SMILES: CC1=N/C(=C\c2cccc([N+](=O)[O-])c2)C(=O)O1
- TGI [1]: > 100 µM
- TGI [50]: > 100 µM
- TGI [2]: > 100 µM
- TGI [51]: > 100 µM
- TGI [52]: > 100 µM
- TGI [3]: > 100 µM
- TGI [4]: > 100 µM
- TGI [5]: > 100 µM
- TGI [6]: > 100 µM
- TGI [7]: > 100 µM
- TGI [8]: > 100 µM
- TGI [9]: > 100 µM
- TGI [53]: > 100 µM
- TGI [10]: > 100 µM
- TGI [54]: > 100 µM
- TGI [11]: > 100 µM
- TGI [12]: > 100 µM
- TGI [13]: > 100 µM
- TGI [14]: > 100 µM
- TGI [15]: > 100 µM
- TGI [16]: > 100 µM
- TGI [17]: > 100 µM
- TGI [18]: > 100 µM
- TGI [55]: 91 µM
- TGI [19]: > 100 µM
- TGI [21]: > 100 µM
- TGI [23]: > 100 µM
- TGI [24]: > 100 µM
- TGI [25]: > 100 µM
- TGI [26]: > 100 µM
- TGI [27]: > 100 µM
- TGI [28]: > 100 µM
- TGI [29]: > 100 µM
- TGI [31]: > 100 µM
- TGI [32]: > 100 µM
- TGI [34]: > 100 µM
- TGI [36]: > 100 µM
- TGI [37]: > 100 µM
- TGI [38]: > 100 µM
- TGI [56]: > 100 µM
- TGI [39]: > 100 µM
- TGI [40]: > 100 µM
- TGI [41]: > 100 µM
- TGI [42]: > 100 µM
- TGI [43]: > 100 µM
- TGI [44]: > 100 µM
- TGI [47]: > 100 µM
- TGI [48]: > 100 µM
- TGI [49]: > 100 µM

SMILES: CCOC(=O)C(Cc1cn(S(=O)(=O)c2ccccc2)c2ccccc12)(NC(C)=O)C(=O)OCC
- TGI [50]: 67.1 µM
- TGI [2]: > 100 µM
- TGI [52]: > 100 µM
- TGI [3]: > 100 µM
- TGI [4]: 44.7 µM
- TGI [5]: > 100 µM
- TGI [7]: 41.5 µM
- TGI [8]: > 100 µM
- TGI [9]: 52.5 µM
- TGI [10]: 33.7 µM
- TGI [54]: > 100 µM
- TGI [11]: > 100 µM
- TGI [13]: > 100 µM
- TGI [14]: > 100 µM
- TGI [15]: > 100 µM
- TGI [16]: > 100 µM
- TGI [17]: > 100 µM
- TGI [18]: 80.3 µM
- TGI [55]: 33.3 µM
- TGI [19]: 60.8 µM
- TGI [20]: > 100 µM
- TGI [21]: 61.4 µM
- TGI [22]: > 100 µM
- TGI [23]: > 100 µM
- TGI [24]: > 100 µM
- TGI [25]: > 100 µM
- TGI [26]: > 100 µM
- TGI [27]: 72 µM
- TGI [28]: > 100 µM
- TGI [29]: > 100 µM
- TGI [30]: 69.8 µM
- TGI [32]: > 100 µM
- TGI [33]: > 100 µM
- TGI [34]: > 100 µM
- TGI [36]: > 100 µM
- TGI [37]: > 100 µM
- TGI [38]: 55.8 µM
- TGI [56]: 88.2 µM
- TGI [57]: > 100 µM
- TGI [39]: > 100 µM
- TGI [40]: > 100 µM
- TGI [41]: 95.5 µM
- TGI [42]: 80.4 µM
- TGI [43]: > 100 µM
- TGI [44]: > 100 µM
- TGI [45]: > 100 µM
- TGI [46]: 93.6 µM
- TGI [47]: 95.8 µM
- TGI [48]: > 100 µM
- TGI [49]: > 100 µM
